# Test results as given in US20060194740A1, “NOD1 as an anti-tumor agent” (priority 2005, published 2006).
# Starred links: 1 amine or outer side, 2 acyl side, 3 side chain; linkers in the order of their positions; H or OH if unused. Non-standard residues stand in square brackets, D forms with d. Residues, ends and D or L forms follow the SMILES beside them. No end group written: not given here. *: point of attachment. mesoDAP = meso-diaminopimelic acid, O=C(O)[C@@H](CCC[C@H](N[*:1])C(=O)[*:2])N[*:3]; Diaminopimelic acid = diaminopimelic acid; Cbz = O=C(OCc1ccccc1)*; CH2F = FC*
# Assays:
# MCF-7 Nod1 cells = test: Propidium iodide exclusion cell death assay, MCF-7 Nod1 cells over-expressing Nod1; assay type: cell-based, human; settings: for effect on γTriDAP-induced cell death: caspase inhibitor 50 uM, 30 min before γTriDAP/CHX for 48 h (FIG. 2D); for effect on γTriDAP-induced apoptosis: inhibitor 100 uM, 30 min prior to γTriDAP/CHX for 48 h (FIG. 6A)
# Experimental: (§1) Cell viability assays. Propidium iodide exclusion assay: Cells were stimulated as indicated for 2 days. Subsequently, cells were harvested, washed twice in FACS buffer (PBS containing 1% FCS and 0.1% NaN3) and resuspended in propidium iodide (PI)—containing FACS buffer (4 ug/ml). The extent of cell death was analyzed with a FACSCalibur flow cytometer (Becton Dickinson, Mountain View, Calif.). DAPI staining: MCF-7 cells were plated in chamber slides, and stimulated for 2 days. Cells were washed with PBS and apoptotic nuclei were stained with 1 μg/ml DAPI (Sigma Chemical Co., St. Louis, Mo.). Cells were fixed in 4% paraformaldehyde and examined by fluorescence microscopy.
# (§2) To further investigate the role of Nod1 in apoptosis, a variety of cell types were incubated with the Nod1 ligand, […] (γTriDAP), which specifically activates Nod1. The cell types tested included the parental MCF-7 cell line, the Nod1-deficient MCF-7C20 clone, and a cell line engineered to contain an additional human Nod1 allele (MCF-7Nod1) so that Nod1 was over-expressed. To determine whether the resistance of C20 cells to γTriDAP-induced apoptosis resulted from the absence of Nod1, human Nod1 was stably expressed in MCF-7 C20 cells to produce Nod1-sufficient C20 cells (C20/Nod1). As another control, the parental MCF-7 cell line was transfected with an empty retroviral vector to generate MCF-7 Blasto cells. Cells were treated with γTriDAP in the presence or absence of cycloheximide (CHX) and cell death was then determined by propidium iodide staining and flow cytometry.
# MCF-7 cells = test: Propidium iodide exclusion cell death assay, wild-type (parental/Blasto) MCF-7 cells; assay type: cell-based, human; settings: for sensitivity to cell death: parental versus C20 cells (data not shown)
# Experimental: as §1, §2
# MCF-7 C20 cells [1] = test: Propidium iodide exclusion cell death assay, Nod1-deficient MCF-7 C20 cells; assay type: cell-based, human
# Experimental: as §1, with “Propidium iodide exclusion assay: Cells were stimulated as indicated for 2 days.” left out
# as §2
# MCF-7 Nod2 cells [2] = test: Propidium iodide apoptosis assay, MCF-7 Nod2 cells; assay type: cell-based, human; settings: MDP plus CHX, 48 h (FIG. 5A)
# Experimental: as §1
# (§3) Experiments were also performed to ascertain whether activation of Nod2 by its specific activator, muramyl dipeptide (MDP), would initiate apoptosis in parental MCF-7 cells or in MCF-7 cells over-expressing Nod2 (MCF-7 Nod2). Thus, γTriDAP or MDP were added to each of these lines and apoptosis (FIG. 5A) and IL-8 production (FIG. 5C) were measured. […] Expression of Nod1 and Nod2 in MCF-7 stable transfectants was confirmed by immunoblotting (FIG. 5B).
# MCF-7 Nod2 cells [3] = test: IL-8 secretion ELISA, MCF-7 Nod2 cells; assay type: cell-based, human; settings: 24 h (FIG. 5C)
# Experimental: IL-8 ELISA. Concentrations of IL-8 in the culture supernatants of transfected HeLa cells were measured by ELISA using 96-well Immunlon plates (Dynatech Laboratories, Chantilly, Va.). ELISA was performed using the mAb MAB208 for capture and a biotinylated polyclonal rabbit anti-human IL-8 Ab (R&D Systems, Minneapolis, Minn.) followed by streptavidin HRP for detection.
# as §3
# MCF-7 RIP2 KD cells = test: Propidium iodide apoptosis assay, MCF-7 RIP2 KD cells; assay type: cell-based, human; settings: cells expressing RIP2 KD; 20 μg/ml, CHX, 48 hr (FIG. 13A)
# Experimental: as §1
# Several RIP2 mutants were stably expressed in MCF-7 cells to evaluate the role of the RIP2 kinase activity in γTriDAP-induced apoptosis. Expression of RIP2 lacking its CARD domain completely abrogated Nod1-induced cell death (FIG. 7A). […] Cells expressing wild type RIP2 and RIP2 KD constructs were sensitive to lower concentrations of γTriDAP and died faster than cells expressing only Nod1 (FIG. 13C) or than parental MCF-7Blasto cells (data not shown).
# [4] = tested on: poly(ADP-ribose)polymerase (PARP) and capases 6, 7, 8 and 9; test: Western blot of PARP and caspase cleavage in MCF-7 cells; assay type: cell-based, human; settings: 24 h (FIG. 3)
# Experimental: (§4) Western blot analysis and immunoprecipitation. Cells were washed extensively and lysed using lysis buffer containing 50 mM Hepes, 100 mM NaCl, 2 mM EDTA, 10% glycerol, 1% Nonidet P-40, 14 μM pepstatin A, 100 uM leupeptin, 3 mM benzamidine, 1 mM PMSF, 1 mM sodium pyrophosphate, 10 mM sodium orthovanadate, 100 U/ml aprotinin, and 100 mM sodium fluoride. After incubation for 30 min on ice, cell lysates were centrifuged (14000 rpm, 10 min, 4° C.) and the supernatants were recovered. For immunoprecipitation, cell lysates were mixed with 5 μg of antibody for 3 hour at 4° C. under constant agitation. Immune complexes were allowed to bind to 20 μl protein A-Sepharose beads overnight, beads were washed three times with lysis buffer. Immunoprecipitates were separated on SDS-PAGE and transferred to PVDF membranes.
# Further confirmation that γTriDAP induces apoptosis was obtained using two broad spectrum caspase inhibitors, z-VAD-FMK and Boc-D-FMK. Both z-VAD-FMK and Boc-D-FMK abrogated γTriDAP-induced cell death (FIG. 2D).
# SK-BR3 = test: Apoptosis by PI staining, SK-BR3 cells stably expressing Nod1; assay type: cell-based, human; settings: SKBR3 cells; αTriDAP substituted for γTriDAP, with TNFα and cycloheximide (FIG. 9B)
# Experimental: as §1
# To determine if Nod1-dependent apoptosis occurs in other human cell lines, a series of epithelial cell lines were examined where Nod1 was stably expressed to enhance sensitivity to activation of the Nod1 pathway. Cells were treated with TNFα (T) and γTriDAP (γ) in the presence or absence of CHX (C) and monitored for viability by PI staining as a measure of apoptosis (Table 1).
# MCF-7 C20/Nod1 cells = test: Propidium iodide exclusion apoptosis assay, MCF-7 C20/Nod1 cells; assay type: cell-based, human; settings: γTriDAP/CHX (FIG. 12A)
# Experimental: as §1, §2
# To determine whether the presence of estrogens modulates Nod1-induced apoptotic pathway, cells were cultured in medium containing charcoal-treated serum.
# JNK = JNK phosphorylation in MCF-7 RIP2 transfectants; assay type: cell-based, human; settings: γTriDAP with cycloheximide for 2 h in wild type RIP2 or RIP2 KD cells (FIG. 7C)
# Experimental: as §4
# The effect of RIP2 expression on γTriDAP-induced JNK phosphorylation was also examined (FIG. 7C).
# MCF-7C20 cells = test: IL-8 production, MCF-7C20 cells; assay type: cell-based, human; settings: MCF-7C20 cells (data not shown)
# MCF7-C20Nod1 cells = test: IL-8 production, MCF7-C20Nod1 cells; assay type: cell-based, human; settings: wild-type Nod1 expressed in MCF7-C20Nod1 cells (FIG. 5C)
# MCF-7 C20 cells [5] = test: 3H-thymidine proliferation assay, MCF-7 C20 cells; assay type: cell-based, human; settings: tamoxifen added in the culture medium (data not shown)
# Experimental: Retroviral transfections. The various genes used in this study were cloned into pMSCV-Blasto, pBabe-Puro or pBabe-Neo retroviral vectors. MCF-7 cells were stably transfected using available procedures. Briefly, amphotropic 293 cells were transfected with retroviral vectors encoding selected Nod1, Nod2 and other proteins. Twenty-four hours post-transfection, cells were incubated at 32° C. overnight to produce viral particles. Target cells were infected the next day with virus-containing 293 cell supernatants containing recombinant retroviral particles. Cells were selected with 10 μg/ml blasticidin S (Calbiochem EMD Biosciences Inc., San Diego, Calif.), 500 μg/ml […] (Invitrogen, Carlsbad, Calif.) or 5 μg/ml puromycin (Calbiochem). The expression of all constructs was confirmed by Western blot analysis. To determine the effects of 17β-estradiol (Calbiochem), cells were cultured in phenol red-free DMEM supplemented with […]. Cells were seeded in 96 well plates with various concentration of 17β-estradiol (E2) for 24 h and pulsed with ^3H-thymidine (1 μCi/well, MP Biomedicals, Irvine, Calif.). Cells were harvested on glass fiber filters and radioactivity measured by liquid scintillation. […]
# Myc-NOD1 (human) = Myc-NOD1 (human) (UniProt Q9Y239); test: cell-based or functional assay
# [6] = target: endogenous NOD1 protein of parental MCF-7 cells (human) (UniProt Q9Y239); test: cell-based or functional assay
# [7] = target: human Nod1 stably expressed in cell lines (human) (UniProt Q9Y239); test: cell-based or functional assay
# [8] = agent alone, wild type cells (FIG. 2A)
compound,measurement,setting,value
COC(=O)C[C@H](NC(=O)[C@H](C)NC(=O)[C@@H](NC(=O)OCc1ccccc1)C(C)C)C(=O)CF [z-VAD-FMK] (Cbz-Val-Ala-Asp(OMe)-CH2F),effect on γTriDAP-induced cell death,MCF-7 Nod1 cells,abrogated
same,effect on γTriDAP-induced apoptosis,MCF-7 Nod1 cells,blocked γTriDAP-induced apoptosis nearly completely
C[C@@H]1C[C@@H]([C@H](O)CC2CC(=O)NC(=O)C2)C(=O)[C@@H](C)C1 [cycloheximide],cell death,MCF-7 cells; [8],No cell death
TNFα,TNFα-induced apoptosis,"MCF-7 C20 cells [1]; MCF-7 C20 versus parent MCF-7 cells, TNF 0-40 ng/ml, 20 h (FIG. 1C)",significantly more resistant
COc1cccc2c1C(=O)c1c(O)c3c(c(O)c1C2=O)C[C@@](O)(C(=O)CO)C[C@@H]3O[C@H]1C[C@H](N)[C@H](O)[C@H](C)O1 [doxirubicin],sensitivity to cell death,MCF-7 cells,equally sensitive
"CC(=O)N[C@H]1C(O)O[C@H](CO)[C@@H](O)[C@@H]1O[C@H](C)C(=O)N[C@@H](C)C(=O)N[C@H](CCC(=O)O)C(N)=O (mixture of isomers) [MDP, muramyl dipeptide]",apoptosis,MCF-7 Nod2 cells [2],did not undergo increased apoptosis
same,IL-8 secretion,MCF-7 Nod2 cells [3],did result in IL-8 secretion
same,apoptosis,MCF-7 RIP2 KD cells,effective at inducing high levels of apoptosis
αTriDAP: inactive control tri-peptide where mesoDAP was bound to Glu in the a position rather than in the γ position (Ala-Glu-[mesoDAP]; not fully specified (residue 1); also: DAP bound to Glu alpha-carboxyl (αTriDAP)),cell death,MCF-7 cells; incubated with MCF-7 cells in the presence of cycloheximide (FIG. 2A),did not induce cell death
same,"proteolytic cleavage of PARP and capases 6, 7, 8 and 9",[4],not
same,apoptosis,SK-BR3,reduced apoptosis
COC(=O)CC(NC(=O)OC(C)(C)C)C(=O)CF [Boc-D-FMK],effect on γTriDAP-induced cell death,MCF-7 Nod1 cells,abrogated
D-Ala-L-Glu-Diaminopimelic acid ([dA]-Glu-[Diaminopimelic acid]; also: Glu gamma-carboxyl linked to DAP (γTriDAP)),cell death,MCF-7 cells; [8],No cell death
same,cell death,"MCF-7 cells; γTriDAP in the presence of cycloheximide, wild-type MCF-7, PI staining, flow cytometry (FIG. 2A)",about 25%
same,apoptosis,"MCF-7 C20 cells [1]; γTriDAP plus cycloheximide, MCF-7C20 without Nod1 expression",totally resistant
same,cell death,"MCF-7 Nod1 cells; combination of cycloheximide and γTriDAP, 48 h treatment, MCF-7Nod1 cells",~60%
same,γTriDAP-induced apoptosis,MCF-7 C20/Nod1 cells; with steroids,80%
same,γTriDAP-induced apoptosis,MCF-7 C20/Nod1 cells; without steroids (charcoal-treated serum),10%
same,"proteolytic cleavage of PARP and capases 6, 7, 8 and 9",[4],resulted in proteolytic cleavage
same,phosphorylation of JNK,JNK,induced phosphorylation of JNK
same,γTriDAP-induced IL-8 production,MCF-7C20 cells,inhibited
same,γTriDAP-induced IL-8 production,MCF7-C20Nod1 cells,restored
IETD,effect on γTriDAP-induced apoptosis,MCF-7 Nod1 cells,marked inhibitory effects
"CC/C(=C(\c1ccccc1)c1ccc(OCCN(C)C)cc1)c1ccccc1 [tamoxifen, reference compound]",effect on γTriDAP-induced cell death,"MCF-7 cells; tamoxifen prior to γTriDAP/CHX, MCF-7 cell lines (FIG. 12B)",partially blocked
same,effect on estrogen-induced proliferation,MCF-7 C20 cells [5],blocked
D-Ala-L-Glu-Diaminopimelic acid (γTriDAP) (peptide),"cell death by propidium iodide staining and flow cytometry; MCF-7Nod1 cells, γTriDAP with cycloheximide, 48 h",Myc-NOD1 (human),60%
same,"cell death by propidium iodide staining and flow cytometry; wild-type MCF-7 cells, γTriDAP with cycloheximide",[6],25%
same,γTriDAP-induced apoptosis; C20/Nod1 cells cultured with steroids,[7],80%
same,γTriDAP-induced apoptosis; C20/Nod1 cells cultured without steroids,[7],10%
CC[C@@]1(O)C(=O)OCc2c1cc1n(c2=O)Cc2cc3ccccc3nc2-1 [camptothecin],sensitivity to cell death,MCF-7 cells,equally sensitive
